We go through five molecules from patent publication US12274678B2, “Cannabinoids and uses thereof” (TECHNION RESEARCH & DEVELOPMENT FOUNDATION LIMITED, priority 2019, dated 2025).

Where a SMILES comes first, the peptide text is derived from it. [ ]: non-standard residue; d: D form. The star is where a group is joined. Nle = CCCC[C@H](N)C(=O)O; Cbz = O=C(OCc1ccccc1)*

Holding throughout (type): cell-based, human
The subject of assay [1] is CCRF-CEM cells. Briefly: AlamarBlue cell viability assay, CCRF-CEM. The following applies: CBD, CBDV, CF1 separately and in combinations, 24 h. The protocol: (§1) Cells were cultured in 96-well plates. At 100,000 cells/well the media was replaced with RPMI containing 0.5% FBS and different Cannabis extracts. Extracts were added in triplicate at a concentration of 1-5 μg/mL. DMSO was used as the control and applied in the same amount as in the diluted extracts. An alamarBlue® reagent was used to quantitate viability (according to the manufacturer's Instructions). Viability was measured following 24 h of incubation using fluorescence spectrophotometry at excitation and emission wavelengths of 560 and 590 nm, respectively. Viability was calculated as percent reduction between treated and control cells.
On the technique in general: Resazurin is reduced to fluorescent resorufin, in cell work by metabolically active cells.

The test system of assay [2] is MOLT-4 cells. Briefly: AlamarBlue cell viability assay, MOLT-4. The following applies: CBD, CBDV, CF1 separately and in combinations, 24 h. On the procedure:
as §1

The test system of assay [3] is NICD. The assay can be described thus: Immunoblotting of NICD protein in cells. The following applies: MOLT-4 cells, 3 μg/mL, 24 h. The protocol:
(§2) Cell Lysis and Western Blot Analyses
Following treatment, cells were solubilized in radioimmunoprecipitation assay buffer (RIPA) (Sigma-Aldrich, R0278) and the protein concentration in lysates were determined using a Bradford reagent (Sigma-Aldrich, B6916). Equal amounts of protein were resolved by Novex™ 4-20% Tris-Glycine Mini Gels (Thermo Fisher Scientific, XP04200BOX) and electrophoretically transferred to a nitrocellulose membrane (Bio-Rad, 1704159S). Membranes were blocked with TBS 0.1% Tween 20 buffer containing 5% bovine serum albumin (Sigma, A7906) for 1 h. The blots were then incubated overnight at 4° C. with Full Notch1 (Millipure ABS90), from Cell Signaling Technology Notch1 V1744 (4147S), c-Myc (13987), Hes1 (11988), anti-cleaved caspase-3 antibody (9664), Phospho-C-Jun (3270), C-Jun (9165), and β-tubulin (clone D3U1W, 86298) and Chac1 (ab76386) from abcam. This was followed by incubation with horseradish peroxidase-labeled matching secondary antibodies. Immunoreactive bands were detected by Luminata™ HRP substrate (Millipore, WBLUR0500) and visualized using a MicroChemi imager (DNR Bioimaging Systems).
A general note: In western blotting, separated proteins are transferred to a membrane and probed.

The test system of assay [4] is NICD. The assay can be described thus: Western blot of NICD in Molt-4 cells pretreated with proteasome inhibitors, then Extract 12. The following applies: MOLT-4 cells pretreated 1 h (MG132 2.5-7.5 μM; MG101 10 μM), then Extract 12 5 μg/mL 3 h. The protocol:
FIG. 14 is a micrograph of a western blot analysis of NICD in Molt-4 cells pretreated with MG132 (proteasome inhibitor; 0, 2.5 μM, 5 μM, 7.5 μM) for 1 h and then treated with vehicle or Extract 12 (5 μg/mL) for 3 h. β-tubulin served as a loading control.
FIG. 15 is a micrograph of western blot analysis of NICD in Molt-4 cells pretreated with MG101 (proteasome inhibitor; 0, 10 μM) for 1 h and then treated with vehicle or Extract 12 (5 μg/mL) for 3 h. β-tubulin served as a loading control.
as §2
Following treatment, cells were solubilized in radioimmunoprecipitation assay buffer (RIPA) (Sigma-Aldrich, R0278) and the protein concentration in lysates were determined using a Bradford reagent (Sigma-Aldrich, B6916). Equal amounts of protein were resolved by Novex™ 4-20% Tris-Glycine Mini Gels (Thermo Fisher Scientific, XP04200BOX) and electrophoretically transferred to a nitrocellulose membrane (Bio-Rad, 1704159S). Membranes were blocked with TBS 0.1% Tween 20 buffer containing 5% bovine serum albumin (Sigma, A7906) for 1 h. […] Immunoreactive bands were detected by Luminata™ HRP substrate (Millipore, WBLUR0500) and visualized using a MicroChemi imager (DNR Bioimaging Systems).

Regarding `C=C(C)[C@@H]1CCC(C)=C[C@H]1c1c(O)cc(CCC)cc1O` [CBDV, cannabidivarin], the “CCRF-CEM cell apoptosis in viability assay of cannabinoids” value (“CCRF-CEM cell apoptosis” for short) in assay [1] is “produced cell apoptosis”. The “MOLT-4 cell death / cell apoptosis in viability assay of cannabinoids” value (from here on “MOLT-4 cell death / cell apoptosis”) in assay [2] is given as “produced cell apoptosis”. Moreover, the “NICD levels after cannabinoids” value in assay [3] was “decreasing NICD levels”.
As to `CCCCCc1cc(O)c(C2C=C(C)CCC2C(C)(C)O)c(O)c1` [CF1, 1,3-Benzenediol, 2-[(1R,6R)-6-(1-hydroxy-1-methylethyl)-3-methyl-2cyclohexen-1-yl]-5-pentyl], in assay [1], the “CCRF-CEM cell apoptosis” value was “produced cell apoptosis”. For the same molecule, the “MOLT-4 cell death / cell apoptosis” value in assay [2] is reported as “produced cell apoptosis”. In addition, in assay [3], the “NICD levels after cannabinoids” value was “decreasing NICD levels”.
On to `CC(C)C[C@@H](C=O)NC(=O)[C@H](CC(C)C)NC(=O)[C@H](CC(C)C)NC(=O)OCc1ccccc1` [MG132] (Cbz-Leu-Leu-Leu-aldehyde), for which the “restoration of NICD protein level by proteasome inhibition” value in assay [4] is recorded as “did not restore”.
With `CCCC[C@@H](C=O)NC(=O)[C@H](CC(C)C)NC(=O)[C@H](CC(C)C)NC(C)=O` [MG101] (Ac-Leu-Leu-[Nle]-aldehyde), the “restoration of NICD protein level by proteasome inhibition” value in assay [4] was “did not restore”.
In the case of `C=C(C)[C@@H]1CCC(C)=C[C@H]1c1c(O)cc(CCCCC)cc1O` [CBD, cannabidiol, reference compound], in assay [1], the “CCRF-CEM cell apoptosis” value was “produced cell apoptosis”. Besides, in assay [2], the “MOLT-4 cell death / cell apoptosis” value is given as “produced cell apoptosis”. The “NICD levels after cannabinoids” value in assay [3] is on record as “decreasing NICD levels”.
